US10758534B2 (Vertex Pharmaceuticals Incorporated, priority 2014, dated 2020)

Target: T1, F508del (Homo sapiens, UniProt P13569, DEL508-508)
T1 construct: expressed in transfected cells
Assay: Protocol 1: membrane potential optical assay (FLIPR III, voltage sensing dye), identification of potentiator compounds
Format: cell-based
Settings: Table 3, compounds of Table 1
In short: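 NIH 3T3 fibroblasts stably expressing F508del were cultured at 27° C for 24 hrs for temperature correction, then treated with compounds or DMSO and loaded with a voltage-sensing redistribution dye. Forskolin added with a Cl⁻ gradient activated the channel; membrane-potential fluorescence on FLIPR III reported increased gating.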

T1 sequence (P13569 with tags, fused parts or gaps DEL508-508): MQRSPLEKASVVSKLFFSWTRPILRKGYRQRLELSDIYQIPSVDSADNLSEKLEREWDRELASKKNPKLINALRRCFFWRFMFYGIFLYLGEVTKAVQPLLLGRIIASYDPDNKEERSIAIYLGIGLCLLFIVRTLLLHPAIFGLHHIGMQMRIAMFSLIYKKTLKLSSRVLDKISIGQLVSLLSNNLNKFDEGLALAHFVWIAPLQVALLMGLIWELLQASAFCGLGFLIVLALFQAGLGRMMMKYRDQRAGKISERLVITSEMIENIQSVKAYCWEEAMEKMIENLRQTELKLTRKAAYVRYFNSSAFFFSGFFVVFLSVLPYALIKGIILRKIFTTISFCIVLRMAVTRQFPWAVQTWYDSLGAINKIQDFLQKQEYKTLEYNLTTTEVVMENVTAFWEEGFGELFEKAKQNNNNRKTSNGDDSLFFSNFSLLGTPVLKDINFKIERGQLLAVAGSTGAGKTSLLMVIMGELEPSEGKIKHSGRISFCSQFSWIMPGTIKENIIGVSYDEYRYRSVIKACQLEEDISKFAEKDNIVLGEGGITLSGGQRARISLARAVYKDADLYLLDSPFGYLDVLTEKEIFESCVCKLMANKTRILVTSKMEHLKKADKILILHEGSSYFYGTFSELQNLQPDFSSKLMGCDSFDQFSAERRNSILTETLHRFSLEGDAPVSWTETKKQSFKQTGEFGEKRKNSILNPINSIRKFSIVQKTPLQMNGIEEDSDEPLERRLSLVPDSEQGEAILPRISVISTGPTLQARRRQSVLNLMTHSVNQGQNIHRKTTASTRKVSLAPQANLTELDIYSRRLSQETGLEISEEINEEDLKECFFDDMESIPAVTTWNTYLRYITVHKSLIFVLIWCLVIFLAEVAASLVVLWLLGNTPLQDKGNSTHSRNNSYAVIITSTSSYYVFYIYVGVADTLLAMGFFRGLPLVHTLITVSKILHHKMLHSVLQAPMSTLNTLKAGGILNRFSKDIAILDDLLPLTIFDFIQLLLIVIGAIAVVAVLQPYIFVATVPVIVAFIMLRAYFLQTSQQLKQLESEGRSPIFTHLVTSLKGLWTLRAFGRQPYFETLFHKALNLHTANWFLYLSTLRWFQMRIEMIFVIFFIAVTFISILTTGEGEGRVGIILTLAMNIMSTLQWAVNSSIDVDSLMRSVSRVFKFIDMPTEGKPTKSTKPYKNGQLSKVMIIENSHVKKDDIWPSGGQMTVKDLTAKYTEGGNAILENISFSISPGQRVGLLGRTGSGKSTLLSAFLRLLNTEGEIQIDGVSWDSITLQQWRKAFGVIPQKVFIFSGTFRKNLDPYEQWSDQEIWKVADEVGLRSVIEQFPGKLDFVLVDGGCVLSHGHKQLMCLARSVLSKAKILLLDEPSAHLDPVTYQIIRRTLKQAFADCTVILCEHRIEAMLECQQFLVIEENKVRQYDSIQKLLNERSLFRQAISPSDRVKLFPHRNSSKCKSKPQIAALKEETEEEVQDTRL

Compound	EC30
CC1CN(c2ncccc2C(=O)NS(=O)(=O)c2cccc(N(C)CCc3ccccc3)n2)C(C)(C)C1 (centres unmarked) [Compound 1978, N—[[6-[methyl(phenethyl)amino]-2-pyridyl]sulfonyl]-2-(2,2,4-trimethylpyrrolidin-1-yl)pyridine-3-carboxamide]	+++ (“+++” means <3 uM)
CC(C)COc1ccccc1-c1cnc(N2CC(C)CC2(C)C)c(C(=O)NS(=O)(=O)c2cccc(N)n2)c1 (centres unmarked) [Compound 1979, N-[(6-amino-2-pyridyl)sulfonyl]-5-(2-isobutoxyphenyl)-2-(2,2,4-trimethylpyrrolidin-1-yl)pyridine-3-carboxamide]	+++ (“+++” means <3 uM)
COc1ncccc1-c1ccc(C(=O)NS(=O)(=O)c2cccnc2N)c(N2C[C@@H](C)CC2(C)C)n1 [Compound 1980, N-[(2-amino-3-pyridyl)sulfonyl]-6-(2-methoxy-3-pyridyl)-2-[(4S)-2,2,4-trimethylpyrrolidin-1-yl]pyridine-3-carboxamide]	+++ (“+++” means <3 uM)
C[C@@H]1CN(c2nc(-c3cc(F)c(F)cc3F)ccc2C(=O)NS(=O)(=O)c2ccc[nH]c2=O)C(C)(C)C1 [Compound 1981, N-[(2-oxo-1H-pyridin-3-yl)sulfonyl]-6-(2,4,5-trifluorophenyl)-2-[(4S)-2,2,4-trimethylpyrrolidin-1-yl]pyridine-3-carboxamide]	+++ (“+++” means <3 uM)
C[C@@H]1CN(c2nc(-c3ccc4[nH]ccc4c3)ccc2C(=O)NS(=O)(=O)c2ccc[nH]c2=O)C(C)(C)C1 [Compound 1982, 6-(1H-indol-5-yl)-N-[(2-oxo-1H-pyridin-3-yl)sulfonyl]-2-[(4S)-2,2,4-trimethylpyrrolidin-1-yl]pyridine-3-carboxamide]	++ (“++” means between 3 uM and 10 uM)
CC1CN(c2ncccc2C(=O)NS(=O)(=O)c2cccc(NCc3ccccc3Cl)n2)C(C)(C)C1 (centres unmarked) [Compound 1983, N—[[6-[(2-chlorophenyl)methylamino]-2-pyridyl]sulfonyl]-2-(2,2,4-trimethylpyrrolidin-1-yl)pyridine-3-carboxamide]	+++ (“+++” means <3 uM)
C[C@@H]1CN(c2nc(C3=CCCN(C(=O)c4cccc(Cl)c4)C3)ccc2C(=O)NS(=O)(=O)c2cccc(N)n2)C(C)(C)C1 [Compound 1984, N-[(6-amino-2-pyridyl)sulfonyl]-6-[1-(3-chlorobenzoyl)-3,6-dihydro-2H-pyridin-5-yl]-2-[(4S)-2,2,4-trimethylpyrrolidin-1-yl]pyridine-3-carboxamide]	++ (“++” means between 3 uM and 10 uM)
CCCCCN1CCN(c2cccc(S(=O)(=O)NC(=O)c3cccnc3N3CC(C)CC3(C)C)n2)CC1 (centres unmarked) [Compound 1985, N—[[6-(4-pentylpiperazin-1-yl)-2-pyridyl]sulfonyl]-2-(2,2,4-trimethylpyrrolidin-1-yl)pyridine-3-carboxamide]	++ (“++” means between 3 uM and 10 uM)
CC1CN(c2ncccc2C(=O)NS(=O)(=O)c2cccc(N3Cc4cccc5cccc(c45)C3)n2)C(C)(C)C1 (centres unmarked) [Compound 1986, N—[[6-(1,3-dihydrobenzo[de]isoquinolin-2-yl)-2-pyridyl]sulfonyl]-2-(2,2,4-trimethylpyrrolidin-1-yl)pyridine-3-carboxamide]	+++ (“+++” means <3 uM)
CC1CN(c2ncccc2C(=O)NS(=O)(=O)c2cccc(N3CCC(c4ccccc4)CC3)n2)C(C)(C)C1 (centres unmarked) [Compound 1987, N—[[6-(4-phenyl-1-piperidyl)-2-pyridyl]sulfonyl]-2-(2,2,4-trimethylpyrrolidin-1-yl)pyridine-3-carboxamide]	+++ (“+++” means <3 uM)
CC1CCCC(Oc2cccc(S(=O)(=O)NC(=O)c3cccnc3N3CC(C)CC3(C)C)n2)C1 (centres unmarked) [Compound 1988, N—[[6-(3-methylcyclohexoxy)-2-pyridyl]sulfonyl]-2-(2,2,4-trimethylpyrrolidin-1-yl)pyridine-3-carboxamide]	+++ (“+++” means <3 uM)
CC1CN(c2ncccc2C(=O)NS(=O)(=O)c2cccc(Oc3ccc4ccccc4n3)n2)C(C)(C)C1 (centres unmarked) [Compound 1989, N—[[6-(2-quinolyloxy)-2-pyridyl]sulfonyl]-2-(2,2,4-trimethylpyrrolidin-1-yl)pyridine-3-carboxamide]	+++ (“+++” means <3 uM)
Cc1ccc(C)c(-c2ccc(C(=O)NS(=O)(=O)c3ccc[nH]c3=O)c(N3C[C@@H](C)CC3(C)C)n2)c1 [Compound 1990, 6-(2,5-dimethylphenyl)-N-[(2-oxo-1H-pyridin-3-yl)sulfonyl]-2-[(4S)-2,2,4-trimethylpyrrolidin-1-yl]pyridine-3-carboxamide]	+++ (“+++” means <3 uM)
CC(C)c1cccc(-c2ccc(C(=O)NS(=O)(=O)c3cccnc3N)c(N3C[C@@H](C)CC3(C)C)n2)c1 [Compound 1991, N-[(2-amino-3-pyridyl)sulfonyl]-6-(3-isopropylphenyl)-2-[(4S)-2,2,4-trimethylpyrrolidin-1-yl]pyridine-3-carboxamide]	+++ (“+++” means <3 uM)
CC1CN(c2ncccc2C(=O)NS(=O)(=O)c2cccc(OCc3ccsc3)n2)C(C)(C)C1 (centres unmarked) [Compound 1992, N—[[6-(3-thienylmethoxy)-2-pyridyl]sulfonyl]-2-(2,2,4-trimethylpyrrolidin-1-yl)pyridine-3-carboxamide]	+++ (“+++” means <3 uM)
COc1cccc(OC)c1-c1ccc(C(=O)NS(=O)(=O)c2cccnc2N)c(N2C[C@@H](C)CC2(C)C)n1 [Compound 1994, N-[(2-amino-3-pyridyl)sulfonyl]-6-(2,6-dimethoxyphenyl)-2-[(4S)-2,2,4-trimethylpyrrolidin-1-yl]pyridine-3-carboxamide]	+++ (“+++” means <3 uM)
CC(C)COc1cc(F)cc(-c2ccc(C(=O)NS(=O)(=O)c3cccc(N)n3)c(N3CC(C)CCC3(C)C)n2)c1 (centres unmarked) [Compound 1995, N-[(6-amino-2-pyridyl)sulfonyl]-6-(3-fluoro-5-isobutoxy-phenyl)-2-(2,2,5-trimethyl-1-piperidyl)pyridine-3-carboxamide]	+++ (“+++” means <3 uM)
